Here are results for 15 compounds from patent US9040518B2, “Chemical compounds” (GlaxoSmithKline LLC, priority 2010, dated 2015).

Each structure is given as a SMILES string. Structures can show the parent of a compound that is named as a salt.

The target of the experiment is ileal bile acid cotransporter (iBAT) (Homo sapiens (Human), UniProt Q12908). Description: Human iBAT inhibition: [3H]-taurocholate uptake into HEK293 cells expressing human iBAT. The class given is cell-based. As to conditions: HEK293 cells transduced with human iBAT Bacmam virus, 90 minutes at ambient temperature, mean of at least 2 datapoints.
ileal bile acid cotransporter (iBAT), sequence (Q12908 whole entry): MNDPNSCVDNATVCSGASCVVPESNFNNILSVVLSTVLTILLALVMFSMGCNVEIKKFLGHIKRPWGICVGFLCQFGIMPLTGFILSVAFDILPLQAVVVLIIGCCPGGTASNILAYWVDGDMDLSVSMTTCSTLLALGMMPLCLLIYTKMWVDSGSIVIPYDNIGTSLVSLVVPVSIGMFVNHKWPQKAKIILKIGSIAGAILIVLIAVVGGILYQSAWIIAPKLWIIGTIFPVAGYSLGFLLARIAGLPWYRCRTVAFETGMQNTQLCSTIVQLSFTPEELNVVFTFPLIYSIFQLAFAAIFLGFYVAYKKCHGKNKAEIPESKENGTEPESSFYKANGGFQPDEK
Compound `CCCC[C@]1(CC)CS(=O)(=O)c2cc(CCCP(=O)(O)O)c(OC)cc2[C@@H](c2ccccc2)N1` [Example 21, {3-[(3R,5R)-3-butyl-3-ethyl-7-(methyloxy)-1,1-dioxido-5-phenyl-2,3,4,5-tetrahydro-1,4-benzothiazepin-8-yl]propyl}phosphonic acid trifluoroacetate salt] had an IC50 of 51 nM.

As to `CCCC[C@]1(CC)CS(=O)(=O)c2cc(CNCC(=O)O)c(OC)cc2[C@@H](c2ccccc2)N1` [Example 25, N-{[(3R,5R)-3-butyl-3-ethyl-7-(methyloxy)-1,1-dioxido-5-phenyl-2,3,4,5-tetrahydro-1,4-benzothiazepin-8-yl]methyl}glycine], the IC50 was 6 nM.

`CCCC[C@]1(CC)CS(=O)(=O)c2cc(CNC(CC(=O)O)CC(=O)O)c(OC)cc2[C@@H](c2ccccc2)N1O` [Example 50, 3-({[(3R,5R)-3-butyl-3-ethyl-4-hydroxy-7-(methyloxy)-1,1-dioxido-5-phenyl-2,3,4,5-tetrahydro-1,4-benzothiazepin-8-yl]methyl}amino)pentanedioic acid trifluoroacetate salt] registered an IC50 of 51 nM.

For `CCCC[C@]1(CC)CS(=O)(=O)c2cc(C(=O)NCC(C)(C)C(=O)O)c(OC)cc2[C@@H](c2ccccc2)N1` [Example 1, 3-({[(3R,5R)-3-butyl-3-ethyl-7-(methyloxy)-1,1-dioxido-5-phenyl-2,3,4,5-tetrahydro-1,4-benzothiazepin-8-yl]carbonyl}amino)-2,2-dimethylpropanoic acid], the IC50 turned out to be 32 nM.

Turning to `CCCC[C@]1(CC)CS(=O)(=O)c2cc(CN(CC(=O)O)CC(=O)O)c(OC)cc2[C@@H](c2ccccc2)N1` [Example 7, 2,2′-({[(3R,5R)-3-butyl-3-ethyl-7-(methyloxy)-1,1-dioxido-5-phenyl-2,3,4,5-tetrahydro-1,4-benzothiazepin-8-yl]methyl}imino)diacetic acid hydrochloride salt], the IC50 came out at 145 nM.

`CCCC[C@]1(CC)CS(=O)(=O)c2cc(CN(C)CC(=O)O)c(OC)cc2[C@@H](c2ccccc2)N1` [Example 49, N-{[(3R,5R)-3-butyl-3-ethyl-7-(methyloxy)-1,1-dioxido-5-phenyl-2,3,4,5-tetrahydro-1,4-benzothiazepin-8-yl]methyl}-N-methylglycine ammonium salt] registered an IC50 of 41 nM.

The compound `CCCC[C@]1(CC)CS(=O)(=O)c2cc(CNC(CC(=O)O)CC(=O)O)c(OC)cc2[C@H](c2ccccc2)N1` [Example 43, 3-({[(3R,5S)-3-butyl-3-ethyl-7-(methyloxy)-1,1-dioxido-5-phenyl-2,3,4,5-tetrahydro-1,4-benzothiazepin-8-yl]methyl}amino)pentanedioic acid] returned an IC50 of 7680 nM.

Take `CCCC[C@]1(CC)CS(=O)(=O)c2cc(CNCCP(=O)(O)OCC)c(OC)cc2[C@@H](c2ccccc2)N1` [Example 34, ethyl hydrogen [2-({[(3R,5R)-3-butyl-3-ethyl-7-(methyloxy)-1,1-dioxido-5-phenyl-2,3,4,5-tetrahydro-1,4-benzothiazepin-8-yl]methyl}amino)ethyl]phosphonate trifluoroacetate salt]: the IC50 came out at 2790 nM.

In turn, `CCCC[C@]1(CC)CS(=O)(=O)c2cc(CNCC(=O)O)c(OC)cc2[C@H](c2ccccc2)N1` [Example 44, N-{[(3R,5S)-3-butyl-3-ethyl-7-(methyloxy)-1,1-dioxido-5-phenyl-2,3,4,5-tetrahydro-1,4-benzothiazepin-8-yl]methyl}glycine trifluoroacetate salt] came in with an IC50 of 648 nM.

Take `CCCC[C@]1(CC)CS(=O)(=O)c2cc(CCP(=O)(O)O)c(OC)cc2[C@@H](c2ccccc2)N1` [Example 51, {2-[(3R,5R)-3-butyl-3-ethyl-7-(methyloxy)-1,1-dioxido-5-phenyl-2,3,4,5-tetrahydro-1,4-benzothiazepin-8-yl]ethyl}phosphonic acid bis-ammonium salt]: the IC50 was 51 nM.

In turn, `CCCC[C@]1(CC)CS(=O)(=O)c2cc(CP(=O)(O)O)c(OC)cc2[C@H](c2ccccc2)N1` [Example 45, {[(3R,5S)-3-butyl-3-ethyl-7-(methyloxy)-1,1-dioxido-5-phenyl-2,3,4,5-tetrahydro-1,4-benzothiazepin-8-yl]methyl}phosphonic acid trifluoroacetate salt] returned an IC50 of 1950 nM.

The compound `CCCC[C@]1(CC)CS(=O)(=O)c2cc(CNC(CC(=O)O)CC(=O)O)c(N(C)C)cc2[C@@H](c2ccccc2)N1` [Example 69, 3-({[(3R,5R)-3-butyl-7-(dimethylamino)-3-ethyl-1,1-dioxido-5-phenyl-2,3,4,5-tetrahydro-1,4-benzothiazepin-8-yl]methyl}amino)pentanedioic acid bis-ammonium salt] gave an IC50 of 19 nM. This IC50 lies about 100-fold lower than the previous one.

The compound `CCCC[C@]1(CC)CS(=O)(=O)c2cc(CCC(=O)NCCS(=O)(=O)O)c(OC)cc2[C@@H](c2ccccc2)N1` [Example 15, 2-({3-[(3R,5R)-3-butyl-3-ethyl-7-(methyloxy)-1,1-dioxido-5-phenyl-2,3,4,5-tetrahydro-1,4-benzothiazepin-8-yl]propanoyl}amino)ethanesulfonic acid] yielded an IC50 of 504 nM.

Consider `CCCC[C@]1(CC)CS(=O)(=O)c2cc(CNC(C)(C)C(=O)O)c(OC)cc2[C@@H](c2ccccc2)N1` [Example 32, N-{[(3R,5R)-3-butyl-3-ethyl-7-(methyloxy)-1,1-dioxido-5-phenyl-2,3,4,5-tetrahydro-1,4-benzothiazepin-8-yl]methyl}-2-methylalanine trifluoroacetate salt], for which the half-maximal inhibitory concentration (IC50) came out at 190 nM.

Take `CCCC[C@]1(CC)CS(=O)(=O)c2cc(/C=C/P(=O)(O)O)c(OC)cc2[C@@H](c2ccccc2)N1` [Example 55, {(E)-2-[(3R,5R)-3-butyl-3-ethyl-7-(methyloxy)-1,1-dioxido-5-phenyl-2,3,4,5-tetrahydro-1,4-benzothiazepin-8-yl]ethenyl}phosphonic acid bis-ammonium salt]: the 50% inhibitory concentration (IC50) was 131 nM.
